Patent US11987642B2, “Bispecific HER2 and CD3 binding molecules” (MEMORIAL SLOAN KETTERING CANCER CENTER, priority 2014, dated 2024)

Key:
[1] = system: HeLa cervical carcinoma cells; experiment: Proliferation assay (WST-8), HeLa; type: cell-based, human
Experimental: (§1) Cell proliferation was determined using an ELISA plate reader and the WST-8 kit (Dojindo technologies) following the manufacturer's instructions and using the formula: % survival rate=(Sample-Background)/(Negative control-Background). Lapatinib (MSKCC pharmacy) was ground using a mortar and pestle and suspended in DMSO as previously described. To determine statistical significance, the results were analyzed using one-way ANOVA using Prism 6.0.

[2] = system: U2OS osteosarcoma cells; experiment: Proliferation assay (WST-8), U2OS; type: cell-based, human
Experimental: as §1

[3] = system: SCCHN cell line PCI-30; experiment: Proliferation assay (WST-8), PCI-30; type: cell-based, human
Experimental: as §1

[4] = system: HeLa cervical carcinoma cells; experiment: T cell cytotoxicity assays, HeLa; type: cell-based, human; conditions: lapatinib pretreatment
Experimental: The ^51Cr release assay was performed with effector T cells cultured in vitro in the presence of anti-CD3 and anti-CD28 for about 14 days. All target tumor cells were harvested with 2 mM EDTA in PBS, labeled with ^51Cr (Amersham, Arlington Height, IL) at 100 μCi/106 cells at 37° C. for 1 h. 5000 target cells/well were mixed with 50,000 effector cells (E:T=10:1) and BsAb antibodies in 96-well polystyrene round-bottom plates (BD Biosciences) to a final volume of 250 μl/well. The plates were incubated at 37° C. for 4 h. The released ^51Cr in supernatant was counted in a γ-counter (Packed Instrument, Downers Grove, IL). Percentage of specific release was calculated using the formula: (experimental cpm−background cpm)/(total cpm−background cpm)×100%, where cpm represented counts per minute of ^51Cr released. […] EC50 was calculated using SigmaPlot software.

[5] = system: trastuzumab-sensitive breast carcinoma cell line SKBR3; experiment: Proliferation assay (WST-8), SKBR3; type: cell-based, human; conditions: SKBR3, 72 hours, 10 μg/mL antibody; lapatinib positive control
Experimental: as §1
For cell proliferation assays, 5,000 tumor cells were plated using RPMI-1640 supplemented with 10% FBS in a 96 well plate for 36 hours before being treated with lapatinib or the antibodies at the specified concentrations. […] Lapatinib (Memorial Sloan Kettering Cancer Center pharmacy) was ground using a mortar and pestle and suspended in DMSO as previously described (Chen et al., 2012, Molecular cancer therapeutics 11:660-669). To determine statistical significance, the results were analyzed using one-way ANOVA using Prism 6.0.

[6] = system: HER2-positive cells; experiment: Blocking of HER2-BsAb redirected T cell cytotoxicity; type: cell-based, human; conditions: pre-incubation with blocking antibody
[7] = system: HCC1954 xenografts; experiment: Subcutaneous HCC1954 xenograft with intravenous PBMC; type: in vivo, DKO mice
Experimental: Subcutaneous xenografts were created with 5×10^6 cells suspended in Matrigel (Corning Corp, Tewksbury MA) and implanted in the flank of DKO mice. Effector peripheral blood mononuclear cell (PBMC) cells were purified from buffy coats purchased from the New York Blood Center. Prior to every experimental procedure, PBMCs were analyzed for their percentage of CD3, CD4, CD8 and CD56 cells to ensure consistency. […] Tumor size was measured using (1) hand-held TM900 scanner (Pieira, Brussels, BE); (2) Calipers; or (3) bioluminescence. Bioluminescence imaging was conducted using the Xenogen In Vivo Imaging System (IVIS) 200 (Caliper LifeSciences). Briefly, mice were injected intravenously with 0.1 mL solution of D-luciferin (Gold Biotechnology; 30 mg/mL stock in PBS). Images were collected 1 to 2 minutes after injection using the following parameters: a 10- to 60-second exposure time, medium binning, and an 8 f/stop. Bioluminescence image analysis was performed using Living Image 2.6 (Caliper LifeSciences).
In two other separate experiments, subcutaneous HER2-positive breast carcinoma cell line HCC1954 was mixed with subcutaneous PBMCs.

Compound	sensitivity of cells in proliferation assay [1]	sensitivity of cells in proliferation assay [2]	sensitivity of cells in proliferation assay [3]	effect of pretreatment on sensitivity to HER2-BsAb mediated cytotoxicity [4]	anti-proliferative effect [5]	effect of blocking on HER2-BsAb induced T cell cytotoxicity [6]	tumor growth [7]
C#Cc1cccc(Nc2ncnc3cc(OCCOC)c(OCCOC)cc23)c1 [erlotinib]	pan-resistant	minimal sensitivity	resistant	–	–	–	–
CS(=O)(=O)CCNCc1ccc(-c2ccc3ncnc(Nc4ccc(OCc5cccc(F)c5)c(Cl)c4)c3c2)o1 [lapatinib]	pan-resistant	minimal sensitivity	resistant	increased sensitivity	strongest inhibition of cell proliferation	–	–
CCOc1cc2ncc(C#N)c(Nc3ccc(OCc4ccccn4)c(Cl)c3)c2cc1NC(=O)/C=C/CN(C)C [neratinib]	pan-resistant	minimal sensitivity	resistant	–	–	–	–
OKT3: CD3 specific blocking mAb	–	–	–	–	–	prevented HER2-BsAb T cell mediated cytotoxicity	–
huOKT3: humanized OKT3 CD3-specific antibody	–	–	–	–	–	blocked the ability of HER2-BsAb to induce T cell cytotoxicity	only modest effects
